Results on 26 compounds are retold here after patent US20180155344A1, “TRICYCLIC PIPERIDINE COMPOUNDS” (ACTELION PHARMACEUTICALS LTD, priority 2015, published 2018).

As usually defined, the IC50 is the concentration that gives 50% inhibition.

The target in the first experiment is T1, human TPH1 (Homo sapiens, UniProt P17752).
T1 sequence (P17752 1-444): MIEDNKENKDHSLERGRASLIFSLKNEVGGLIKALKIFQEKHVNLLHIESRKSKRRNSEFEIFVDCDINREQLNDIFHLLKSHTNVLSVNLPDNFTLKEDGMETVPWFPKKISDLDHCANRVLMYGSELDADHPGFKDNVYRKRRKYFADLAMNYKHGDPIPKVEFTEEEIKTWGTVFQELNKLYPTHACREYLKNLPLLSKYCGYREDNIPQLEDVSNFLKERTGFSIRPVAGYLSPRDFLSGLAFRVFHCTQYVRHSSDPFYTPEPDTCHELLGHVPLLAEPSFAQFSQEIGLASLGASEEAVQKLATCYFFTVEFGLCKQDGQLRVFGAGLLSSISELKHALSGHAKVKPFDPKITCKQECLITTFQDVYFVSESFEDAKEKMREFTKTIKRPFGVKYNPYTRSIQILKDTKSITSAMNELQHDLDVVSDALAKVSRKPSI
Description: biochemical.
Settings: not given
The gist of the method:
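Inhibition is derived from 5-hydroxy-L-tryptophan fluorescence (540 nm emission, 300 nm excitation) after perchloric acid stop, relative to DMSO vehicle. Recombinant full-length human enzyme (40-80 nM) reacts with 40 μM tryptophan plus 100 μM methyltetrahydropterin, pH 7.6 Tris/DTT/catalase, 15° C, 60 min.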
Consider `CS(=O)(=O)Nc1ccc(OCC(=O)N2CCc3nc4cccnn4c3C2c2ccc(Cl)cc2F)c(Cl)n1` (centres unmarked) [Example 16.4.1, N-(6-chloro-5-(2-(9-(4-chloro-2-fluorophenyl)-6,9-dihydropyrido[4′,3′:4,5]imidazo[1,2-b]pyridazin-8(7H)-yl)-2-oxoethoxy)pyridin-2-yl)methanesulfonamide], for which the IC50 worked out at 167 nM. In other words, the sub-micromolar range. The same measure, in the same setting: the same measure for `Cc1ccc(C2c3c(nc4cc(C(F)(F)F)ccn34)CCN2C(=O)COc2cc(-c3ccccc3)nn2C)nc1` (centres unmarked) [Example 3.50.3, 2-((1-methyl-3-phenyl-1H-pyrazol-5-yl)oxy)-1-(1-(5-methylpyridin-2-yl)-7-(trifluoromethyl)-3,4-dihydroimidazo[1,2-a:5,4-c′]dipyridin-2(1H)-yl)ethan-1-one]: 468 nM; for `O=C(COc1ccc(N2CCOCC2)nc1Cl)N1CCc2nc3ccccn3c2C1c1nc(-c2ccccc2)no1` (centres unmarked) [Example 1.8.1, 2-((2-chloro-6-morpholinopyridin-3-yl)oxy)-1-(1-(3-phenyl-1,2,4-oxadiazol-5-yl)-3,4-dihydroimidazo[1,2-a:5,4-c′]dipyridin-2(1H)-yl)ethan-1-one]: 16 nM; for `O=C(NC1CC1)c1ccc(OCC(=O)N2CCc3nc4ccccn4c3C2c2ccc(OCCO)cc2F)c(Cl)n1` (centres unmarked) [Example 1.22.1, 6-chloro-N-cyclopropyl-5-(2-(1-(2-fluoro-4-(2-hydroxyethoxy)phenyl)-3,4-dihydroimidazo[1,2-a:5,4-c′]dipyridin-2(1H)-yl)-2-oxoethoxy)picolinamide]: 80 nM.

`CCc1c(OCC(=O)N2CCc3nc4ccccn4c3C2c2ccc(OC)c(OC)c2)ccc2ccccc12` (centres unmarked) [Example 1.1.7, 1-(1-(3,4-dimethoxyphenyl)-3,4-dihydroimidazo[1,2-a:5,4-c′]dipyridin-2(1H)-yl)-2-((1-ethylnaphthalen-2-yl)oxy)ethan-1-one] showed an IC50 of 4 nM. `O=C(COc1ccc(N2CCOCC2)nc1Cl)N1CCc2nc3ncccn3c2C1c1ccc(C2CC2)cc1F` (centres unmarked) [Example 18.1.1, 2-((2-chloro-6-morpholinopyridin-3-yl)oxy)-1-(6-(4-cyclopropyl-2-fluorophenyl)-8,9-dihydropyrido[4′,3′:4,5]imidazo[1,2-a]pyrimidin-7(6H)-yl)ethan-1-one] registered a concentration for half-maximal inhibition (IC50) of 56 nM.

With `COc1ccc(C2c3c(nc4ccccn34)CCN2C(=O)COc2cc(C)ccc2C)cc1OC` (centres unmarked) [Example 1.1.1, 1-(1-(3,4-dimethoxyphenyl)-3,4-dihydroimidazo[1,2-a:5,4-c′]dipyridin-2(1H)-yl)-2-(2,5-dimethylphenoxy)ethan-1-one], 418 nM corresponded to half-maximal inhibition (IC50). On the same count and under the same terms, as for `COc1ccc(C2c3c(nc4ccccn34)CCN2C(=O)COc2ccc3ccccc3c2)cc1OC` (centres unmarked) [Example 1.1.5, 1-(1-(3,4-dimethoxyphenyl)-3,4-dihydroimidazo[1,2-a:5,4-c′]dipyridin-2(1H)-yl)-2-(naphthalen-2-yloxy)ethan-1-one], the figure is 24 nM; as for `COc1ccc(C2c3c(nc4ccccn34)CCN2C(=O)COc2ccc3ccccc3c2Cl)cc1OC` (centres unmarked) [Example 1.1.9, 2-((1-chloronaphthalen-2-yl)oxy)-1-(1-(3,4-dimethoxyphenyl)-3,4-dihydroimidazo[1,2-a:5,4-c′]dipyridin-2(1H)-yl)ethan-1-one], 8 nM; as for `O=C(COc1ccc(N2CCOCC2)cc1Cl)N1CCc2nc3cc(C(F)(F)F)ccn3c2C1c1ncccc1F` (centres unmarked) [Example 3.21.3, 2-(2-chloro-4-morpholinophenoxy)-1-(1-(3-fluoropyridin-2-yl)-7-(trifluoromethyl)-3,4-dihydroimidazo[1,2-a:5,4-c′]dipyridin-2(1H)-yl)ethan-1-one], 88 nM. On the same count and under the same terms, as for `COC(=O)c1ccc(C2c3c(nc4ccccn34)CCN2C(=O)COc2ccc(C(=O)NC3CC3)nc2Cl)c(F)c1` (centres unmarked) [Example 1.15.2, methyl-4-(2-(2-((2-chloro-6-(cyclopropylcarbamoyl)pyridin-3-yl)oxy)acetyl)-1,2,3,4-tetrahydroimidazo[1,2-a:5,4-c′]dipyridin-1-yl)-3-fluorobenzoate], the figure is 49 nM; as for `COc1ccc(C2c3c(nc4cc(C(F)(F)F)ccn34)CCN2C(=O)COc2ccc3c(c2C)CCN(C(C)=O)C3)c(F)c1` (centres unmarked) [Example 3.3.6, 2-((2-acetyl-5-methyl-1,2,3,4-tetrahydroisoquinolin-6-yl)oxy)-1-(1-(2-fluoro-4-methoxyphenyl)-7-(trifluoromethyl)-3,4-dihydroimidazo[1,2-a:5,4-c′]dipyridin-2(1H)-yl)ethan-1-one], 11 nM; as for `O=C(COc1ccc(CN2CCOCC2)cc1Cl)N1CCc2nc3ccccn3c2C1c1cccnc1F` (centres unmarked) [Example 1.2.1, 2-(2-chloro-4-(morpholinomethyl)phenoxy)-1-(1-(2-fluoropyridin-3-yl)-3,4-dihydroimidazo[1,2-a:5,4-c′]dipyridin-2(1H)-yl)ethan-1-one], 209 nM. The same measure, in the same setting: the same measure for `CCc1nc(NS(C)(=O)=O)ccc1OCC(=O)N1CCc2nc3cccnn3c2C1c1sc(C)nc1C` (centres unmarked) [Example 16.5.1, N-(5-(2-(9-(2,4-dimethylthiazol-5-yl)-6,9-dihydropyrido[4′,3′:4,5]imidazo[1,2-b]pyridazin-8(7H)-yl)-2-oxoethoxy)-6-ethylpyridin-2-yl)methanesulfonamide]: 31 nM; for `COc1ccc(C2c3c(nc4ccccn34)CCN2C(=O)COc2ccc3ccccc3c2Br)cc1OC` (centres unmarked) [Example 1.1.8, 2-((1-bromonaphthalen-2-yl)oxy)-1-(1-(3,4-dimethoxyphenyl)-3,4-dihydroimidazo[1,2-a:5,4-c′]dipyridin-2(1H)-yl)ethan-1-one]: 9 nM. For the compound `CCOc1ccc(C2c3c(nc4cc(C(F)(F)F)ccn34)CCN2C(=O)COc2ccc(CN3CCOCC3)cc2Cl)cn1` (centres unmarked) [Example 3.7.1, 2-(2-chloro-4-(morpholinomethyl)phenoxy)-1-(1-(6-ethoxypyridin-3-yl)-7-(trifluoromethyl)-3,4-dihydroimidazo[1,2-a:5,4-c′]dipyridin-2(1H)-yl)ethan-1-one], the IC50 amounted to 18 nM.

`CCOC(=O)c1cc(OCC(=O)N2CCc3nc4ccccn4c3C2c2ccc(OC)c(OC)c2)c(CC)cc1C` (centres unmarked) [Example 1.1.10, ethyl 5-(2-(1-(3,4-dimethoxyphenyl)-3,4-dihydroimidazo[1,2-a:5,4-c′]dipyridin-2(1H)-yl)-2-oxoethoxy)4-ethyl-2-methylbenzoate]: 92 nM corresponded to half-maximal inhibition (IC50). As for `COc1ccc(C2c3c(nc4cc(C(F)(F)F)ccn34)CCN2C(=O)COc2ccc3ccccc3c2)cc1` (centres unmarked) [Example 3.24.1, 1-(1-(4-methoxyphenyl)-7-(trifluoromethyl)-3,4-dihydroimidazo[1,2-a:5,4-c′]dipyridin-2(1H)-yl)-2-(naphthalen-2-yloxy)ethan-1-one], half-maximal inhibition (IC50) required 44 nM.

In turn, `O=C(COc1ccc2ccccc2c1)N1CCc2nc3cc(C(F)(F)F)ccn3c2C1c1cccnc1F` (centres unmarked) [Example 3.2.2, 1-(1-(2-fluoropyridin-3-yl)-7-(trifluoromethyl)-3,4-dihydroimidazo[1,2-a:5,4-c′]dipyridin-2(1H)-yl)-2-(naphthalen-2-yloxy)ethan-1-one] returned a half-inhibitory concentration (IC50) of 82 nM. Still for that read-out and setting: as for `Cc1ccc(C2c3c(nc4cc(C(F)(F)F)ccn34)CCN2C(=O)COc2ccc3ccccc3c2)cn1` (centres unmarked) [Example 3.38.1, 1-(1-(6-methylpyridin-3-yl)-7-(trifluoromethyl)-3,4-dihydroimidazo[1,2-a:5,4-c′]dipyridin-2(1H)-yl)-2-(naphthalen-2-yloxy)ethan-1-one], the figure is 26 nM; as for `Cc1ccc(C2c3c(nc4ccccn34)CCN2C(=O)COc2ccc(Cl)cc2Cl)cc1C` (centres unmarked) [Example 1.10.1, 2-(2,4-dichlorophenoxy)-1-(1-(3,4-dimethylphenyl)-3,4-dihydroimidazo[1,2-a:5,4-c′]dipyridin-2(1H)-yl)ethan-1-one], 451 nM; as for `COc1ccc(C2c3c(nc4cc(C(F)(F)F)ccn34)CCN2C(=O)COc2ccc(C(F)(F)F)cc2)cc1OC` (centres unmarked) [Example 3.1.8], 132 nM. On the same count and under the same terms, as for `O=C(COc1ccc2ccccc2c1)N1CCc2nc3cc(C(F)(F)F)ccn3c2C1c1ccc(OC(F)F)cc1` (centres unmarked) [Example 3.26.1, 1-(1-(4-(difluoromethoxy)phenyl)-7-(trifluoromethyl)-3,4-dihydroimidazo[1,2-a:5,4-c′]dipyridin-2(1H)-yl)-2-(naphthalen-2-yloxy)ethan-1-one], the figure is 120 nM; as for `COc1ccc(C2c3c(nc4cc(C(F)(F)F)ccn34)CCN2C(=O)COc2ccc3ccccc3c2)nc1` (centres unmarked) [Example 3.52.1, 1-(1-(5-methoxypyridin-2-yl)-7-(trifluoromethyl)-3,4-dihydroimidazo[1,2-a:5,4-c′]dipyridin-2(1H)-yl)-2-(naphthalen-2-yloxy)ethan-1-one], 90 nM; as for `O=C(COc1ccc(CN2CCOCC2)cc1Cl)N1CCc2nc3cc(C(F)(F)F)ccn3c2C1c1ccc(C(F)(F)F)cc1` (centres unmarked) [Example 3.28.2, 2-(2-chloro-4-(morpholinomethyl)phenoxy)-1-(7-(trifluoromethyl)-1-(4-(trifluoromethyl)phenyl)-3,4-dihydroimidazo[1,2-a:5,4-c′]dipyridin-2(1H)-yl)ethan-1-one], 77 nM.

Still in this experiment, the particulars now being: Table 1; full length human TPH1, 40 μM L-tryptophan, 15° C., 60 minutes; mean if determined several times.
“1-(1-(4-(aminomethyl)phenyl)-7-(trifluoromethyl)-3,4-dihydroimidazo[1,2-a:5,4-c′]dipyridin-2(1H)-yl)-2-(2-chloro-4-(morpholinomethyl)phenoxy)ethan-1-one [Example 3.31.2]” came in with an IC50 of 145 nM.
